In ChEMBL document CHEMBL1132691, “Structure-immunosuppressive activity relationships of new analogues of 15-deoxyspergualin. 2. Structural modifications of the spermidine moiety” (1999):

Experiments:
Mus musculus [1] = test: Tested in vivo against mouse graft-versus-host disease(GVHD) for survival (mean) after daily administration of 0.3 mg/kg (i.p.) using group of 8 mice/dose for 10 days.; format: functional; settings: route intraperitoneal
Mus musculus [2] = test: Tested in vivo against mouse graft-versus-host disease(GVHD) for survival (mean) after daily administration of 3 mg/kg (i.p.) using group of 8 mice/dose for 10 days.; format: functional; settings: route intraperitoneal
Rattus norvegicus [3] = test: The compound was tested in vivo against heart transplanted rat for survival (mean) after daily administration of 6 mg/kg(ip) for 10 days.; format: functional
Rattus norvegicus [4] = test: The compound was tested in vivo against heart transplanted rat for survival (mean) after daily administration of 2.5 mg/kg(ip) for 10 days.; format: functional
Rattus norvegicus [5] = test: The compound was tested in vivo against heart transplanted rat for survival (mean) after daily administration of 6 mg/kg(ip) for 10 days.

SMILES | Mean survival (Mus musculus [1]) | Mean survival (Mus musculus [2]) | Mean survival (Rattus norvegicus [3]) | Mean survival (Rattus norvegicus [4]) | Mean survival (Rattus norvegicus [5])
NC(N)=NCCCCCCNC(=O)COC(=O)NCCCCNCCC(N)C(F)(F)F (configuration not stated) | 16 days | 17 days | – | – | –
CC(CCN)NCCCCNC(=O)CC(=O)NCCCCCCN=C(N)N (configuration not stated) | 11 days | 12 days | – | – | –
NCCCCNC(=O)OCC(=O)NCCCCCCN=C(N)N | 14 days | 14 days | – | – | –
CN(CCCN)CCCCNC(=O)CC(=O)NCCCCCCN=C(N)N | 14 days | 14 days | – | – | –
CCC(N)CCNCCCCNC(=O)OCC(=O)NCCCCCCN=C(N)N (configuration not stated) | 16 days | 21 days | – | – | –
CC(C)(N)CCNCCCCNC(=O)CC(=O)NCCCCCCN=C(N)N | 15 days | 15 days | – | – | –
C[C@H](N)CCNCCCCNC(=O)CC(=O)NCCCCCCN=C(N)N | – | 17 days | – | – | –
C[C@H](N)CCNCCCCNC(=O)OCC(=O)NCCCCCCN=C(N)N | 16 days | 25 days | 9 days | – | –
CC(CN)CNCCCCNC(=O)CC(=O)NCCCCCCN=C(N)N (configuration not stated) | 18 days | 18 days | – | – | –
CC(N)CCNCCCCNC(=O)OCC(=O)NCCCCCCN=C(N)N (configuration not stated) | 53 days | 57 days | – | 56 days | –
CC(N)CCNCCCCNC(=O)CC(=O)NCCCCCCN=C(N)N (configuration not stated) | 17 days | 60 days | 24 days | – | –
CC(CCCNCCCN)NC(=O)CC(=O)NCCCCCCN=C(N)N (configuration not stated) | – | 21 days | – | – | –
C[C@@H](N)CCNCCCCNC(=O)CC(=O)NCCCCCCN=C(N)N | 26 days | 49 days | 68 days | – | –
CC(CCCNC(=O)CC(=O)NCCCCCCN=C(N)N)NCCCN (configuration not stated) | 11 days | 14 days | – | – | –
NC(N)=NCCCCCCNC(=O)COC(=O)NCCCCNCCC(N)c1ccccc1 (configuration not stated) | 15 days | 15 days | – | – | –
NCCCNCCCCNC(=O)CC(=O)NCCCCCCN=C(N)N | 17 days | 52 days | 9 days | – | –
C[C@@H](N)CCNCCCCNC(=O)OCC(=O)NCCCCCCNC(=N)N [ANISPERIMUS] | 60 days | 60 days | – | 80 days | –
N=C(N)NCCCCCCC(=O)NC(O)C(=O)NCCCCNCCCN (configuration not stated) [GUSPERIMUS] | – | – | – | – | 38 days
N=C(N)NCCCCCCNC(=O)COC(=O)NCCCCNCCCN [TRESPERIMUS] | 15 days | 58 days | – | 16 days | –
